Reference: US10597388B2, “Pyridazinone herbicides” (FMC CORPORATION, priority 2014, dated 2020)

Key:
Assay in all cases: Test E greenhouse herbicide test, pre- and postemergence
Format in all cases: in vivo
[1] = test system: arrowleaf sida (Sida rhombifolia)
In short: (§1)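 Seedlings reaching 2–18 cm (1- to 4-leaf stage) received foliar treatment, while seeds in silt loam received a soil surface spray; the vehicle in each case was a non-phytotoxic solvent mixture including surfactant. Visual scoring versus controls followed 14–21 d later on a 0–100 scale.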

[2] = test system: beggarticks (hairy beggarticks, Bidens pilosa)
In short: as §1

[3] = test system: corn (Zea mays)
In short: as §1

[4] = test system: crabgrass, Brazilian (Brazilian crabgrass, Digitaria horizontalis)
In short: as §1

[5] = test system: foxtail, giant (giant foxtail, Setaria faberii); conditions: Preemergence
In short: as §1

[6] = test system: goosegrass (Eleusine indica); conditions: Preemergence
In short: as §1

[7] = test system: johnsongrass (Sorghum halepense); conditions: Preemergence
In short: as §1

[8] = test system: kochia (Kochia scoparia)
In short: as §1

[9] = test system: lambsquarters (Chenopodium album); conditions: Preemergence
In short: as §1

[10] = test system: nightshade (eastern black nightshade, Solanum ptycanthum); conditions: Preemergence
In short: as §1

[11] = test system: panicum, fall (fall panicum, Panicum dichotomiflorum)
In short: as §1

[12] = test system: pigweed, palmer (palmer pigweed, Amaranthus palmeri)
In short: as §1

[13] = test system: ragweed (common ragweed, Ambrosia elatior)
In short: as §1

[14] = test system: sandbur (southem sandbur, Cenchrus echinatus)
In short: as §1

[15] = test system: soybean (Glycine max)
In short: as §1

[16] = test system: surinam grass (Brachiaria decumbens); conditions: Preemergence
In short: as §1

[17] = test system: velvetleaf (Abutilon theophrasti); conditions: Preemergence
In short: as §1

[18] = 62 g ai/ha, Postemergence, scale 0 to 100 (0 no effect, 100 complete control)
[19] = 62 g ai/ha, Preemergence, scale 0 to 100 (0 no effect, 100 complete control)
[20] = 125 g ai/ha, Postemergence, scale 0 to 100 (0 no effect, 100 complete control)
[21] = 125 g ai/ha, Preemergence, scale 0 to 100 (0 no effect, 100 complete control)
[22] = 250 g ai/ha, Postemergence, scale 0 to 100 (0 no effect, 100 complete control)
[23] = Postemergence, 31 g ai/ha, visual, scale 0 no effect to 100 complete control
[24] = Preemergence, 31 g ai/ha, scale 0 to 100, 0 no effect, 100 complete control
[25] = Preemergence, 250 g ai/ha, visual, scale 0 no effect to 100 complete control
[26] = 62 g ai/ha, scale 0 to 100 (0 no effect, 100 complete control)
[27] = 125 g ai/ha, scale 0 to 100 (0 no effect, 100 complete control)
[28] = 31 g ai/ha, scale 0 to 100, 0 no effect, 100 complete control
[29] = 250 g ai/ha, visual, scale 0 no effect to 100 complete control

CCOC(=O)Oc1c(C)nn(C)c(=O)c1-c1c(C)sc2c(C)cc(C)cc12 [Compound 83]
Plant response rating, Arrowleaf Sida [1, 18]: 50
Plant response rating, Arrowleaf Sida [1, 19]: 25
Plant response rating, Arrowleaf Sida [1, 20]: 60
Plant response rating, Arrowleaf Sida [1, 21]: 35
Plant response rating, Arrowleaf Sida [1, 22]: 60
Plant response rating, Arrowleaf Sida [1, 23]: 50
Plant response rating, Arrowleaf Sida [1, 24]: 15
Plant response rating, Arrowleaf Sida [1, 25]: 65
Plant response rating, Beggarticks [2, 18]: 100
Plant response rating, Beggarticks [2, 19]: 100
Plant response rating, Beggarticks [2, 20]: 100
Plant response rating, Beggarticks [2, 21]: 100
Plant response rating, Beggarticks [2, 22]: 100
Plant response rating, Beggarticks [2, 23]: 98
Plant response rating, Beggarticks [2, 24]: 100
Plant response rating, Beggarticks [2, 25]: 100
Plant response rating, Corn [3, 18]: 0
Plant response rating, Corn [3, 19]: 0
Plant response rating, Corn [3, 20]: 0
Plant response rating, Corn [3, 21]: 0
Plant response rating, Corn [3, 22]: 10
Plant response rating, Corn [3, 23]: 0
Plant response rating, Corn [3, 24]: 0
Plant response rating, Corn [3, 25]: 0
Plant response rating, Crabgrass, Brazil [4, 18]: 40
Plant response rating, Crabgrass, Brazil [4, 19]: 10
Plant response rating, Crabgrass, Brazil [4, 20]: 50
Plant response rating, Crabgrass, Brazil [4, 21]: 50
Plant response rating, Crabgrass, Brazil [4, 22]: 50
Plant response rating, Crabgrass, Brazil [4, 23]: 30
Plant response rating, Crabgrass, Brazil [4, 24]: 0
Plant response rating, Crabgrass, Brazil [4, 25]: 80
Plant response rating, Foxtail, Giant [5, 26]: 98
Plant response rating, Foxtail, Giant [5, 27]: 100
Plant response rating, Foxtail, Giant [5, 28]: 95
Plant response rating, Foxtail, Giant [5, 29]: 100
Plant response rating, Goosegrass [6, 26]: 0
Plant response rating, Goosegrass [6, 27]: 5
Plant response rating, Goosegrass [6, 28]: 0
Plant response rating, Goosegrass [6, 29]: 25
Plant response rating, Johnsongrass [7, 26]: 0
Plant response rating, Johnsongrass [7, 27]: 0
Plant response rating, Johnsongrass [7, 28]: 0
Plant response rating, Johnsongrass [7, 29]: 20
Plant response rating, Kochia [8, 18]: 60
Plant response rating, Kochia [8, 19]: 0
Plant response rating, Kochia [8, 20]: 75
Plant response rating, Kochia [8, 21]: 0
Plant response rating, Kochia [8, 22]: 65
Plant response rating, Kochia [8, 23]: 40
Plant response rating, Kochia [8, 24]: 0
Plant response rating, Kochia [8, 25]: 75
Plant response rating, Lambsquarters [9, 26]: 98
Plant response rating, Lambsquarters [9, 27]: 100
Plant response rating, Lambsquarters [9, 28]: 100
Plant response rating, Lambsquarters [9, 29]: 100
Plant response rating, Nightshade [10, 26]: 50
Plant response rating, Nightshade [10, 27]: 100
Plant response rating, Nightshade [10, 28]: 35
Plant response rating, Nightshade [10, 29]: 100
Plant response rating, Panicum, Fall [11, 18]: 70
Plant response rating, Panicum, Fall [11, 19]: 95
Plant response rating, Panicum, Fall [11, 20]: 80
Plant response rating, Panicum, Fall [11, 21]: 100
Plant response rating, Panicum, Fall [11, 22]: 90
Plant response rating, Panicum, Fall [11, 23]: 70
Plant response rating, Panicum, Fall [11, 24]: 90
Plant response rating, Panicum, Fall [11, 25]: 98
Plant response rating, Pigweed, Palmer [12, 18]: 40
Plant response rating, Pigweed, Palmer [12, 19]: 20
Plant response rating, Pigweed, Palmer [12, 20]: 50
Plant response rating, Pigweed, Palmer [12, 21]: 50
Plant response rating, Pigweed, Palmer [12, 22]: 60
Plant response rating, Pigweed, Palmer [12, 23]: 40
Plant response rating, Pigweed, Palmer [12, 24]: 0
Plant response rating, Pigweed, Palmer [12, 25]: 80
Plant response rating, Ragweed [13, 18]: 50
Plant response rating, Ragweed [13, 19]: 75
Plant response rating, Ragweed [13, 20]: 70
Plant response rating, Ragweed [13, 21]: 95
Plant response rating, Ragweed [13, 22]: 75
Plant response rating, Ragweed [13, 23]: 60
Plant response rating, Ragweed [13, 24]: 70
Plant response rating, Ragweed [13, 25]: 98
Plant response rating, Sandbur [14, 19]: 70
Plant response rating, Sandbur [14, 20]: 65
Plant response rating, Sandbur [14, 21]: 75
Plant response rating, Sandbur [14, 22]: 70
Plant response rating, Sandbur [14, 23]: 40
Plant response rating, Sandbur [14, 24]: 20
Plant response rating, Sandbur [14, 25]: 80
Plant response rating, Soybean [15, 19]: 0
Plant response rating, Soybean [15, 20]: 0
Plant response rating, Soybean [15, 21]: 0
Plant response rating, Soybean [15, 22]: 15
Plant response rating, Soybean [15, 23]: 0
Plant response rating, Soybean [15, 24]: 0
Plant response rating, Soybean [15, 25]: 0
Plant response rating, Surinam Grass [16, 26]: 60
Plant response rating, Surinam Grass [16, 27]: 85
Plant response rating, Surinam Grass [16, 28]: 65
Plant response rating, Surinam Grass [16, 29]: 95
Plant response rating, Velvetleaf [17, 26]: 35
Plant response rating, Velvetleaf [17, 27]: 70
Plant response rating, Velvetleaf [17, 28]: 0
Plant response rating, Velvetleaf [17, 29]: 100
